# From patent US7402606B2, “Derivatives of 1-(oxoaminoacetyl) pentylcarbamate as cathepsin K inhibitors for the treatment of bone loss” (SmithKline Beecham Corporation, priority 2002, dated 2008)
# Molecular target: T1, human cathepsin K (Homo sapiens, UniProt P43235)
# T1 construct: The proform of cathepsin K was converted to mature cathepsin K by brief exposure to pH 4; made in house; host or cells: baculovirus; Trichoplusia ni High Five cells (virus raised in Sf-9)
# T1 sequence (P43235 115-329): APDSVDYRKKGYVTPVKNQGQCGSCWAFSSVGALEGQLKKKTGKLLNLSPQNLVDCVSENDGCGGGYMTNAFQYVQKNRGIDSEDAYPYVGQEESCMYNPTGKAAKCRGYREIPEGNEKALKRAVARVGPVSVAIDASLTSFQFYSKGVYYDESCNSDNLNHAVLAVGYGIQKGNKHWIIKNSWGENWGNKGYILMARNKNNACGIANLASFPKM
# Assay: Cathepsin K inhibition assay, human recombinant enzyme, fluorogenic substrate Cbz-Phe-Arg-AMC
# Format: biochemical
# Settings: Table 1, human cathepsin K; read-out: h Cat K IC50
# Procedure: All assays for cathepsin K were carried out with human and rat recombinant enzyme. Assays for cathepsins S ? V were also carried out with human recombinant enzyme. Assays for human cathepsins B, H, and L were carried out with enzyme, purchased from Athens Research and Technology, Inc., prepared from human liver tissue. […] A stock substrate solution of Cbz-Phe-Arg-AMC was prepared at a concentration of 50 mM in dimethyl sulfoxide. This substrate was diluted into the assay for a final substrate concentration of 10 μM in the rat cathepsin K, human cathepsin K, and human cathepsin B assays; a final substrate concentration of 5 μM in the human cathepsin L assay; and a final substrate concentration of 2 μM in the human cathepsin V assay.
# All assays contained 10% dimethyl sulfoxide. […] All assays were conducted at 30° C. Product fluorescence (excitation at 360 nm; emission at 440 nm, (except cathepsin H which used excitation at 340 nm; emission at 420 nm)) was monitored with a PerSeptive Biosystems Cytofluor II fluorescence plate reader. Product progress curves were generated over 2.3 h monitoring the formation of 7-amino-4-methylcoumarin product (or β-naphthalamide for cathepsin H).
# Human and rat Cathepsin K:
# Two liters of Spodoptera frugiperda (Sf-9) cells (ATCC) were grown in Grace's Supplemented medium (Life Technologies) supplemented with 2 g/L glucose, 10% fetal bovine serum (HyClone) and 0.1% pluronic F-68 (Life Technologies). […] The cells continued to grow for 72 h post-infection, before the virus was harvested by centrifugation at 1400×g for 30 min.
# One and one-half liters of Trichoplusia ni (T. ni) High Five (™) cells [JRH Biosciences, Woodland, Calif. […] The cells were grown for 24 h at 28° C., 50 RPM, and 50% dissolved oxygen. […] Media were separated from cells at a rate of 1 L/min using the Centritech 100 ™ continuous-flow centrifuge (DuPont) operating at 200×g.
# Protein Purification: Media (human and rat) were filtered through a Whatman 3 filter, and then loaded onto a 25 mL. Poros HS II (26 mm×47 mm) cation exchange column equilibrated in 25 mM sodium acetate at pH 5.5 (equilibration buffer). The column was washed until the absorbance reached the baseline value, and then the protein was eluted with a linear gradient from 0-2 M sodium chloride in the equilibration buffer. Column fractions were analyzed by SDS-PAGE, N-terminal sequencing, and mass spectrometry. Fractions containing the proform of cathepsin K were pooled and frozen at −80° C. The proform was concentrated in an Amicon Centriprep 10 and fractionated with a Superdex 75 column (26 mm×600 mm, Pharmacia) equilibrated in 400 mM sodium chloride, 25 mM sodium acetate at pH 5.5.
# Cathepsin K Activation: The proform of cathepsin K was converted to mature cathepsin K by brief exposure to pH 4 in the presence of 5 mM L-cysteine. Typically, 5 mM L-cysteine was added to 10 mL of approximately 1 mg/mL procathepsin K. One mL of this solution was diluted ten-fold into 450 mM sodium acetate at pH 4.0 containing 5 mM L-cysteine. This solution was reacted at 23° C. for 2 min before neutralization with 2 mL, 1.8 M sodium acetate at pH 6.0. The neutralized sample was added to the remaining 9 mL of procathepsin K. The mixture was incubated at 4° C. for 2-3 days. The activated cathepsin K was chromatographed on a Poros HS II column as described above.
# Potential inhibitors were evaluated using the progress curve method. Assays were carried out in the presence of variable concentrations of test compound. Reactions were initiated by addition of buffered solutions of inhibitor and substrate to enzyme. Data analysis was conducted according to one of two procedures depending on the appearance of the progress curves in the presence of inhibitors. […] Ki values were calculated from IC50 values using equation 2 assuming a competitive model.
row,SMILES,IC50 [µM]
1,"CCCC[C@H](NC(=O)O[C@@H]1CN(C(=O)OCC2CCOC2)CC1(C)C)C(=O)C(=O)N[C@H](C)c1ccccc1 (stereo partly drawn) [Example 49, Tetrahydro-3-furanylmethyl (4S)-3,3-dimethyl-4-[({[(1S)-1-(oxo {[(1R)-1-phenylethyl]amino}acetyl)pentyl]amino}carbonyl)oxy]-1-pyrrolidinecarboxylate]",0.01 to 0.1
2,"CCCC[C@H](NC(=O)O[C@@H]1CN(C(=O)Cc2csc(-c3cnccn3)n2)CC1(C)C)C(=O)C(=O)N[C@H](C)c1ccccc1 [Example 38, (3S)-4,4-Dimethyl-1-{[2-(2-pyrazinyl)-1,3-thiazol-4-yl]acetyl-}pyrrolidinyl (1S)-1-(oxo{[(1R)-1-phenylethyl]amino}acetyl)pentylcarbamate]",0.01 to 0.1
3,"CCCC[C@H](NC(=O)O[C@@H]1CN(C(=O)NS(=O)(=O)c2ccc(C)cc2)CC1(C)C)C(=O)C(=O)N[C@H](C)c1ccccc1 [Example 76, (3S)-4,4-Dimethyl-1-({[(4-methylphenyl)sulfonyl]amino}carbonyl)pyrrolidinyl (1S)-1-(oxo{[(1R)-1-phenylethyl]amino}acetyl)pentylcarbamate]",0.1 to 1
4,CCCC[C@H](NC(=O)O[C@@H]1CN(C(=O)c2ccno2)CC1(C)C)C(=O)C(=O)N[C@H](C)c1ccccc1 [Example 12],0.001 to 0.01
5,"CCCC[C@H](NC(=O)O[C@@H]1CN(C(=O)OCc2cccc(-c3ccccc3)c2C)CC1(C)C)C(=O)C(=O)N[C@H](C)c1ccccc1 [Example 54, (2-Methyl[1,1′-biphenyl]-3-yl)methyl (4S)-3,3-dimethyl-4-[({[(1S)-1-(oxo{[(1R)-1-phenylethyl]amino}acetyl)pentyl]amino}carbonyl)oxy]-1-pyrrolidinecarboxylate]",0.01 to 0.1
6,"CCCC[C@H](NC(=O)O[C@@H]1CN(C(=O)Cc2cc(C)no2)CC1(C)C)C(=O)C(=O)N[C@H](C)c1ccccc1 [Example 35, (3S)-4,4-Dimethyl-1-[(3-methyl-5-isoxazolyl)acetyl]pyrrolidinyl (1S)-1-(oxo{[(1R)-1-phenylethyl]amino}acetyl)pentylcarbamate]",0.001 to 0.01
7,"CCCC[C@H](NC(=O)O[C@@H]1CN(C(=O)c2cc(C(C)(C)C)nn2C)CC1(C)C)C(=O)C(=O)N[C@H](C)c1ccccc1 [Example 14, (3S)-1-[(3-tert-Butyl-1-methyl-1H-pyrazol-5-yl)carbonyl]-4,4-dimethylpyrrolidinyl (1S)-1-(oxo{[(1R)-1-phenylethyl]amino}acetyl)pentylcarbamate]",0.001 to 0.01
8,"CCCC[C@H](NC(=O)O[C@@H]1CN(C(=O)c2csc(-c3ccncc3)n2)CC1(C)C)C(=O)C(=O)N[C@H](C)c1ccccc1 [Example 26, (3S)-4,4-Dimethyl-1-{[2-(4-pyridinyl)-1,3-thiazol-4-yl]carbonyl}pyrrolidinyl (1S)-1-(oxo{[(1R)-1-phenylethyl]amino}acetyl)pentylcarbamate]",0.01 to 0.1
9,"CCCC[C@H](NC(=O)OC1C(=O)N(Cc2ccccc2)CC1(C)C)C(=O)C(=O)N[C@H](C)c1ccccc1 (stereo partly drawn) [Example 4, 1-Benzyl-4,4-dimethyl-2-oxo-3-pyrrolidinyl (1S)-1-(oxo{[(1R)-1-phenylethyl]amino}acetyl)pentylcarbamate]",0.01 to 0.1
10,"CCCC[C@H](NC(=O)O[C@@H]1CN(C(=O)c2ccc3[nH]nnc3c2)CC1(C)C)C(=O)C(=O)N[C@H](C)c1ccccc1 [Example 22, (3S)-1-(1H-1,2,3-Benzotriazol-5-ylcarbonyl)-4,4-dimethylpyrrolidinyl (1S)-1-(oxo{[(1R)-1-phenylethyl]amino}acetyl)pentylcarbamate]",0.001 to 0.01
11,"CCCC[C@H](NC(=O)O[C@@H]1CN(C(=O)Cc2ccccc2)CC1(C)C)C(=O)C(=O)N[C@H](C)c1ccccc1 [Example 11, (3S)-4,4-Dimethyl-1-(phenylacetyl)pyrrolidinyl (1S)-1-(oxo{[(1R)-1-phenylethyl]amino}acetyl)pentylcarbamate]",0.001 to 0.01
12,"CCCC[C@H](NC(=O)O[C@@H]1CN(C(=O)NCCc2ccccc2)CC1(C)C)C(=O)C(=O)N[C@H](C)c1ccccc1 [Example 65, (3S)-4,4-Dimethyl-1-{[(2-phenylethyl)amino]carbonyl}pyrrolidinyl (1S)-1-(oxo{[(1R)-1-phenylethyl]amino}acetyl)pentylcarbamate]",0.001 to 0.01
13,"CCCC[C@H](NC(=O)O[C@@H]1CN(C(=O)Nc2c(C)noc2C)CC1(C)C)C(=O)C(=O)N[C@H](C)c1ccccc1 [Example 67, (3S)-1-{[(3,5-Dimethyl-4-isoxazolyl)amino]carbonyl}-4,4-dimethylpyrrolidinyl (1S)-1-(oxo{[(1R)-1-phenylethyl]amino}acetyl)pentylcarbamate]",0.01 to 0.1
14,"CCCC[C@H](NC(=O)O[C@@H]1CN(C(=O)c2c(-c3ccccc3)noc2C)CC1(C)C)C(=O)C(=O)N[C@H](C)c1ccccc1 [Example 27, (3S)-4,4-Dimethyl-1-[(5-methyl-3-phenyl-4-isoxazolyl)carbonyl]pyrrolidinyl (1S)-1-(oxo{[(1R)-1-phenylethyl]amino}acetyl)pentylcarbamate]",0.01 to 0.1
15,"CCCC[C@H](NC(=O)O[C@@H]1CN(c2nc3ccccc3s2)CC1(C)C)C(=O)C(=O)Nc1ccn[nH]1 [Example 81, (3S)-1-(1,3-Benzothiazol-2-yl)-4,4-dimethylpyrrolidinyl (1S)-1-[oxo(1H-pyrazol-5-ylamino)acetyl]pentylcarbamate]",0.0001 to 0.001
16,"CCCC[C@H](NC(=O)O[C@@H]1CN(C(=O)c2nn(-c3ccccc3)nc2C)CC1(C)C)C(=O)C(=O)N[C@H](C)c1ccccc1 [Example 15, (3S)-4,4-Dimethyl-1-[(5-methyl-2-phenyl-2H-1,2,3-triazol-4-yl)carbonyl]pyrrolidinyl (1S)-1-(oxo{[(1R)-1-phenylethyl]amino}acetyl)pentylcarbamate]",0.001 to 0.01
17,"CNC(=O)NCCCC[C@H](NC(=O)O[C@@H]1C(=O)OCC1(C)C)C(=O)C(=O)N[C@H](C)c1ccccc1 [Example 2, (3S)-4,4-dimethyl-2-oxotetrahydro-3-furanyl (1S)-5-{[(methylamino)carbonyl]amino}-1-(oxo{[(1R)-1-phenylethyl]amino}acetyl)pentylcarbamate]",0.001 to 0.01
18,"CCCC[C@H](NC(=O)O[C@@H]1CN(S(=O)(=O)c2ccc3c(c2)OCCO3)CC1(C)C)C(=O)C(=O)N[C@H](C)c1ccccc1 [Example 80, (3S)-1-(2,3-Dihydro-1,4-benzodioxin-6-ylsulfonyl)-4,4-dimethylpyrrolidinyl (1S)-1-(oxo{[(1R)-1-phenylethyl]amino}acetyl)pentylcarbamate]",0.01 to 0.1
19,"CCCC[C@H](NC(=O)O[C@@H]1CN(C(=O)Oc2ccc(-c3ccccc3)cc2)CC1(C)C)C(=O)C(=O)N[C@H](C)c1ccccc1 [Example 57, [1,1′-Biphenyl]-4-yl (4S)-3,3-dimethyl-4-[({[(1S)-1-(oxo{[(1R)-1-phenylethyl]amino}acetyl)pentyl]amino}carbonyl)oxy]-1-pyrrolidinecarboxylate]",0.001 to 0.01
20,"CCCC[C@H](NC(=O)OC1C(=O)N(C)CC1(C)C)C(=O)C(=O)N[C@H](C)c1ccccc1 (stereo partly drawn) [Example 7, 1,4,4-trimethyl-2-oxo-3-pyrrolidinyl (1S)-1-(oxo{[(1R)-1-phenylethyl]amino}acetyl)pentylcarbamate]",0.01 to 0.1
